Laboratory results reported in ChEMBL document CHEMBL5055672, “Design, Synthesis, Biological Evaluation, and Computational Studies of Novel Fluorinated Candidates as PI3K Inhibitors: Targeting Fluorophilic Binding Sites” (J Med Chem, 2021).

Columns and labels:
Type in all cases: functional
Details in all cases: read-out: GI
CCRF-CEM = test: Cytotoxicity against human CCRF-CEM cells assessed as growth inhibition at 10 uM after 48 hrs by sulforhodamine B assay
HOP-62 = test: Cytotoxicity against human HOP-62 cells assessed as growth inhibition at 10 uM after 48 hrs by sulforhodamine B assay
HOP-92 = test: Cytotoxicity against human HOP-92 cells assessed as growth inhibition at 10 uM after 48 hrs by sulforhodamine B assay
NCI-H522 = test: Cytotoxicity against human NCI-H522 cells assessed as growth inhibition at 10 uM after 48 hrs by sulforhodamine B assay
HCT-116 = test: Cytotoxicity against human HCT-116 cells assessed as growth inhibition at 10 uM after 48 hrs by sulforhodamine B assay
SF-268 = test: Cytotoxicity against human SF-268 cells assessed as growth inhibition at 10 uM after 48 hrs by sulforhodamine B assay
SF-295 = test: Cytotoxicity against human SF-295 cells assessed as growth inhibition at 10 uM after 48 hrs by sulforhodamine B assay
SF-539 = test: Cytotoxicity against human SF-539 cells assessed as growth inhibition at 10 uM after 48 hrs by sulforhodamine B assay
SNB-19 = test: Cytotoxicity against human SNB-19 cells assessed as growth inhibition at 10 uM after 48 hrs by sulforhodamine B assay
SNB-75 = test: Cytotoxicity against human SNB-75 cells assessed as growth inhibition at 10 uM after 48 hrs by sulforhodamine B assay
U-251 = test: Cytotoxicity against human U-251 cells assessed as growth inhibition at 10 uM after 48 hrs by sulforhodamine B assay
SK-MEL-2 = test: Cytotoxicity against human SK-MEL-2 cells assessed as growth inhibition at 10 uM after 48 hrs by sulforhodamine B assay
UACC-62 = test: Cytotoxicity against human UACC-62 cells assessed as growth inhibition at 10 uM after 48 hrs by sulforhodamine B assay
SK-OV-3 = test: Cytotoxicity against human SK-OV-3 cells assessed as growth inhibition at 10 uM after 48 hrs by sulforhodamine B assay
786-0 = test: Cytotoxicity against human 786-0 cells assessed as growth inhibition at 10 uM after 48 hrs by sulforhodamine B assay
A498 = test: Cytotoxicity against human A498 cells assessed as growth inhibition at 10 uM after 48 hrs by sulforhodamine B assay
ACHN = test: Cytotoxicity against human ACHN cells assessed as growth inhibition at 10 uM after 48 hrs by sulforhodamine B assay
CAKI-1 = test: Cytotoxicity against human CAKI-1 cells assessed as growth inhibition at 10 uM after 48 hrs by sulforhodamine B assay
RXF 393 = test: Cytotoxicity against human RXF 393 cells assessed as growth inhibition at 10 uM after 48 hrs by sulforhodamine B assay
MCF7 = test: Cytotoxicity against human MCF7 cells assessed as growth inhibition at 10 uM after 48 hrs by sulforhodamine B assay
MDA-MB-231 = test: Cytotoxicity against human MDA-MB-231 cells assessed as growth inhibition at 10 uM after 48 hrs by sulforhodamine B assay
[1] = Cytotoxicity against human Hs 578T cells assessed as growth inhibition at 10 uM after 48 hrs by sulforhodamine B assay

`COC(=O)/C=C1\S/C(=N\N=C\c2ccc(OS(=O)(=O)C(F)(F)C(F)(F)C(F)(F)C(F)(F)C(F)(F)C(F)(F)C(F)(F)C(F)(F)F)cc2)N(c2ccccc2)C1=O` showed an inhibition of growth at 10 µM (CCRF-CEM) of 22.1%, an inhibition of growth at 10 µM (HOP-62) of 27% and an inhibition of growth at 10 µM (HOP-92) of 25.1%. The inhibition of growth at 10 µM (NCI-H522) was 22.1%, the inhibition of growth at 10 µM (HCT-116) was 10.5% and the inhibition of growth at 10 µM (SF-268) was 19.3%. For the same compound, the inhibition of growth at 10 µM (SF-295) was 22%, the inhibition of growth at 10 µM (SF-539) was 12.1% and the inhibition of growth at 10 µM (SNB-19) was 36.3%. The inhibition of growth at 10 µM (SNB-75) was 37.8%, the inhibition of growth at 10 µM (U-251) was 36.2% and the inhibition of growth at 10 µM (SK-MEL-2) was 16.9%. The inhibition of growth at 10 µM (UACC-62) was 13.5%, the inhibition of growth at 10 µM (SK-OV-3) was 14.1% and the inhibition of growth at 10 µM (786-0) was 26.6%. For the same compound, the inhibition of growth at 10 µM (A498) was 12.9%, the inhibition of growth at 10 µM (ACHN) was 11.6% and the inhibition of growth at 10 µM (CAKI-1) was 20%. It also gave an inhibition of growth at 10 µM (RXF 393) of 39.7%, an inhibition of growth at 10 µM (MCF7) of 11.2% and an inhibition of growth at 10 µM (MDA-MB-231) of 15.2%. For the same compound, the inhibition of growth at 10 µM [1] was 34.1%.
